Experimental data from publication PMC8533333, “Melatonin Analogues Potently Inhibit MAO-B and Protect PC12 Cells against Oxidative Stress” (Antioxidants, 2021).

What was measured:
[1] = tested on: PC12 cells; test: Cytotoxicity in PC12 cells (MTT assay); type: cell-based, rat; conditions: 10 and 30 μM, 24 h
Method: (§1) Control cells were incubated in an equivalent volume of DMSO to a final concentration of 0.3%. Neuroprotective effects of the tested compounds on the toxicity induced by 6-OHDA or rotenone in PC12 cells were evaluated as described previously with slight modifications. In brief, cells were pre-treated with the tested compounds or rasagiline at the indicated concentrations for 4 h. Next, they were exposed to 6-OHDA (50 μM) or rotenone (1 μM) for 24 h. In another set of experiments, the influence of HO-1 inhibitor, ZnPP, on the neuroprotective effects of the tested compounds against 6-OHDA-induced oxidative damage was investigated as previously reported. Briefly, the cells were pre-treated with the tested compounds for 4 h and then incubated with 0.2 µM of ZnPP for 30 min. Subsequently, 6-OHDA was added at a final concentration of 50 µM and incubated for 24 h.
(§2) After the desired treatment, cell viability was determined by MTT assay as described previously. Briefly, MTT was added to the cells at the final concentration of 0.5 mg/mL, which was followed by incubation for 3 h at 37 °C. […] The absorbance of the dissolved solution was measured at 550 nm using a microplate reader (SpectraMax M2^e, Molecular Devices, Sunnyvale, CA, USA). The cell viability was presented as the percentage of the absorbance measured in the vehicle-treated control cells.
Cell viabilities were measured by MTT assay.

[2] = tested on: LPO in rat brain homogenates; test: Lipid peroxidation (LPO) induced by Fe2+ and L-ascorbic acid in rat forebrain homogenates; type: biochemical; conditions: 100 μM; Fe2+ 10 µM and L-ascorbic acid 100 µM
Method: The effects of the investigated compounds on the LPO levels in rat forebrain homogenates were evaluated as previously described. Sprague–Dawley (SD) rats were obtained from Daehan Biolink (Chungbuk, Korea) and maintained in the animal facility with controlled temperature (22 ± 2 °C) and relative humidity (40–60%). All the experimental steps and protocols of the animal experiments were approved by the Institutional Animal Ethical Committee of Dongguk University (Approval Number: IACUC-2019-001-2). To initiate LPO reaction, 3–4 mg protein/mL diluent of SD rat forebrain homogenates in 20 mM Tris-HCl buffer (pH 7.4) and several concentrations of the tested compounds dissolved in DMSO were added to a reaction mixture with 10 µM Fe^2+ and 100 µM L-ascorbic acid and incubated for 60 min at 37 °C. After halting the reaction by adding 28% w/v trichloroacetic acid and 1% w/v TBA in succession, the solution was heated for 15 min at 100 °C, which was followed by centrifugation at 3000 rpm for 10 min at 4 °C to separate the precipitates. […] The percentage of inhibition was calculated by the following formula:Inhibition (%) = 100 × (1 − Abssample/Abscontrol) (Abscontrol, the absorbance of control without tested compounds; Abssample, the absorbance of sample with tested compounds). […]

[3] = tested on: Nrf2; test: Nuclear translocation of Nrf2 in PC12 cells (Western blotting); type: cell-based, rat; conditions: for time of peak Nrf2 protein expression: 10 μM; for nuclear translocation of Nrf2: PC12 nuclear fraction, Western blotting
Method: PC12 cells were seeded on 35 mm dishes at a density of 2 × 10^6 cells/dish and kept at 37 °C in humidified incubator for at least 24 h. Cells were treated with a series of concentrations of the tested compounds for 12 h or with the tested compounds (10 μM) for the indicated time points. Control cells were treated with serum-free media containing 0.3% DMSO instead. Total cell lysates were prepared according to the methods described previously, and stored at −20 °C until used. To evaluate the effects of the tested compounds on the nuclear translocation of Nrf2, nuclear fraction was separated from cytosolic fraction using NE-PER Nuclear and Cytoplasmic Extraction Reagents (Rockford, IL, USA), following the manufacturer’s directions. The protein concentrations were assessed using a BioRad DC protein assay kit (BioRad, Hercules, CA, USA). Equal amounts of proteins (20 µg) were resolved on 12% or 8% gels via sodium dodecyl sulfate-polyacrylamide gel electrophoresis and electrophoretically transferred onto nitrocellulose membrane (Whatman, Clifton, NJ, USA). Subsequently, immunoblotting was performed using anti-HO-1 or anti-Nrf2 antibodies, respectively, according to the procedures reported previously. Beta-actin, a highly conserved cytoskeletal protein, was used as a loading control of cell lysates to normalize the level of HO-1, while nuclear protein lamin B was used as a nuclear loading control to normalize the level of Nrf2 in the nuclear fraction. Finally, the immunoreactive bands corresponding to HO-1 or Nrf2 proteins were visualized using Clarity^TM Western ECL substrate (Bio-Rad, Hercules, CA, USA) using the BioRad ChemiDoc XRS imaging system (Bio-Rad, Hercules, CA, USA).
Nrf2 is a transcription factor involved in the expression of antioxidant defense enzymes in response to oxidative stress. Upon nuclear translocation, Nrf2 binds to antioxidant response elements (AREs), leading to the transcription of ARE genes such as HO-1 [111]. […] Nrf2 protein expression peaked after 6 h of treatment with each compound at 10 μM (Figure 15A,B). […] The nuclear translocation of Nrf2 was increased by 3n and 3r in concentration-dependent manners (Figure 16C,D).

[4] = tested on: PC12 cells; conditions: ZnPP 0.2 µM, 6-OHDA 50 µM 24 h
Method: as §1, §2

Row | SMILES | cytotoxic effects on PC12 cells [1] | inhibition of lipid peroxide formation (LPO) [2] [%] | time of peak Nrf2 protein expression [3] [h] | nuclear translocation of Nrf2 [3] | effect of ZnPP on protective effects against 6-OHDA-induced toxicity [4]
1 | O=C(Nc1ccc2[nH]ccc2c1)c1cccc(Br)c1 [3r, 3-Bromo-N-(1H-indol-5-yl)benzamide] | did not show any significant cytotoxic effects | 44.4 ± 2.2 | 6 | increased | completely abolished
2 | O=C(Nc1ccc2[nH]ccc2c1)c1cccc(Cl)c1 [3n, 3-Chloro-N-(1H-indol-5-yl)benzamide] | did not show any significant cytotoxic effects | 23.5 ± 1.7 | 6 | increased | completely abolished
